From patent EP4640213A1, “ORAL PHARMACEUTICAL PREPARATION COMPRISING SODIUM-GLUCOSE COTRANSPORTER-2 INHIBITOR AND ANGIOTENSIN II RECEPTOR BLOCKER” (THPharm Corp., priority 2022, dated 2024) come the findings set out here.

For series [1], the system named is angiotensin converting enzyme (ACE). Description: ACE mRNA expression (RT-PCR) in LPS inflammation-induced H9c2 cells. It is filed as cell-based, rat. The conditions noted are these: alone administration, FIGS. 5 and 6. As for the experimental part: Specifically, H9c2 cells as a […] cardiac cell line were obtained and used from the Korea Cell Line Bank (KCLB 40071, Korea) and incubated and prepared in a DMEM medium supplemented with 10% FBS and 1% antibiotic-antimycotic (10 units/ml penicillin, 100 µg/ml streptomycin, 0.25 µg/ml amphotericin) under 37°C and 5% CO2 conditions.
To confirm the effect on ACE activity, the prepared H9c2 cells were treated with 2.5 µg/ml of Lipopolysaccharide (LPS), which was 2.5 times more than the amount used in conventional inflammation-related experiments, to induce inflammation, thereby setting the optimized conditions for confirming ACE expression. LPS inflammation-induced H9c2 cells were treated with 10, 25, and 50 µM Telmisartan or olmesartan, respectively, and the H9c2 cells were harvested for ELISA assay. The harvested cells were treated with 1 ml of an RIPA buffer and stirred at 4°C for 30 minutes to extract proteins. Thereafter, the proteins were centrifuged at 4°C and 10,000 rpm for 20 minutes, and the supernatant was transferred to a sterilized tube and stored at - 80°C for use in the ELISA assay.
Specifically, LPS inflammation-induced H9c2 cells in Experimental Example 1-2 were treated with 10 or 25 µM Telmisartan and 10 or 50 µM olmesartan, and then treated with 200 µl of chloroform together with 1 ml of TRIZol (Sigma, USA), gently mixed, and separated for 10 minutes, and then centrifuged at 4°C and 10,000 rpm for 10 minutes. After centrifugation, only the supernatant from the tube was taken and transferred to a new sterile tube, and the supernatant was treated with 500 µl of isopropanol to precipitate RNA. The precipitated RNA was centrifuged at 4°C, 10,000 rpm for 10 minutes, and then the supernatant except for the pellets in the tube was fully removed, and the RNA pellets were treated with 500 µl of 75% ethyl alcohol and thoroughly washed. The washed pellets were centrifuged at 4°C, 10,000 rpm for 5 minutes, and then the supernatant except the pellets was fully removed. The tube containing the pellets from which the supernatant had been cleanly removed was treated with diethyl pyrocarbonate (DEPC)-water and stored at - 80°C for use in an RT-PCR experiment.
RT-PCR was performed by synthesizing cDNA from mRNA using an RT-PCR kit containing DNA polymerase, buffer, dNTP, and tracking dye, and then using ACE primers in Table 1 under the conditions in Table 2 for 35 cycles. The PCR products were electrophoresed on a […] agarose gel, identified using a UV transilluminator, and expressed as normalized to GAPDH for quantitative comparison.
In order to confirm the effect of each combination or single substance on the mRNA expression of ACE, the experimental samples in Table 3 were treated to H9c2 cells induced with LPS inflammation in Experimental Example 1-2, respectively, and then the mRNA expression of ACE was evaluated in the same manner as in Experimental Example 1-3.

The nature of series [2]: Drug-drug compatibility test under accelerated stability conditions. It is filed as physicochemical. As for the experimental part: Specifically, after storing a mixture of ARB and SGLT-2 inhibitor for 4 weeks under accelerated stability test conditions (40 ± 2°C/75 ± 5% relative humidity), changes in the contents of each ingredient and flexible substance and changes in properties (color, agglomeration, etc.) were analyzed. Olmesartan, Valsartan, and Telmisartan were used as ARBs, and Empagliflozin, Dapagliflozin (Dapagliflozin propanediol monohydrate), and Canagliflozin were used as SGLT-2 inhibitors. [Table 4] […] To observe the properties and viscosity of the main ingredients, 10 g of the mixtures of ARBs and SGLT-2 inhibitors stored for 1, 2, 3, and 4 weeks were taken and exposed to 100 ml of purified water at room temperature for 10 minutes, and then the properties and viscosity were identified.

The conditions of series [3]: in the presence of Telmisartan.
Series [4] is described as follows: Single oral administration pharmacokinetic test. Particulars: beagle dogs.
Experimental: The control and test drugs were administered orally once by a single tablet, and were crossed over (4 × 4 cross over) four times at one-week intervals. Fasting was performed from 5 to 6 pm the day before administration. The control and test drugs were administered into the tongue root, and then administered with approximately 15 ml of water, and feed was provided approximately 4 hours after administration. Blood was collected at 0 (blank), 0.25, 0.5, 0.75, 1, 1.5, 2, 3, 4, 5, 6, 8, 12, and 24 hours (14 times) after administration of the control and test drugs, and left by a 7-day drug-free period.
A short description of series [5]: 4-week repeated oral administration toxicity. It is filed as in vivo, Sprague-Dawley rats. Particulars: oral daily for 4 weeks; blood test. As for the experimental part:
During the test, general symptom observation, blood test, and body weight measurement were performed, and after the observation period ended, the rats were euthanized and autopsied.

The next series concerns A549 cells. Description: Cell survival rate (MTT) in A549 cells. It is filed as cell-based. The conditions noted are these: up to a concentration of 25 µM, 24 and 48 hours, FIGS. 1A, 1B. As for the experimental part:
(§1) To screen angiotensin II receptor blockers for use in combinations of angiotensin II receptor blockers (ARBs) and sodium-glucose cotransporter-2 (SGLT-2) inhibitors for the treatment of heart failure, cell survival rates were evaluated.
(§2) Specifically, A549 cells were obtained from the Korean Cell Line Bank (KCLB) and subcultured using a RPMI-1640 medium supplemented with 10% fetal bovine serum (FBS) and 1% Penicillin, and MDCK cells were obtained from ATCC and subcultured using a DMEM medium supplemented with 10% FBS. 200 µl each of the A549 cells and MDCK cells incubated in an incubator under 37°C and 5% CO2 conditions were dispensed at 2 × 10^4 cells/well in a 96-well plate, and then a control group was treated with 100 µl of the medium, and experimental groups were treated with 1.25, 25, 50, and 100 µM of Telmisartan or olmesartan, respectively. After 24 and 48 hours, all of the wells were treated with 50 µl each of a 2 mg/ml MTT reagent and incubated in an incubator for 3 hours, and then each well was added with […] of DMSO, wrapped in foil, stirred for 30 minutes at room temperature, and the absorbance was measured at 570 nm to obtain the cell survival rate.

The test system of another series is MDCK cells. Description: Cell survival rate (MTT) in MDCK cells. It is filed as cell-based. Particulars: up to a concentration of 25 µM, 24 and 48 hours, FIGS. 2A, 2B. As for the experimental part: as §1, §2
[6] abbreviates: 15 µM high-concentration groups.
The mark [7] stands for this setting: low-concentration groups of 2.5 µM to 10 µM.
[8] abbreviates: ARB ingredient (first value of cell), Acceleration 1 week, 40 ± 2°C/75 ± 5% relative humidity.
[9] abbreviates: ARB ingredient (first value of cell), Acceleration 2 week.
Setting [10] is: ARB ingredient (first value of cell), Acceleration 3 week.
The mark [11] stands for this setting: ARB ingredient (first value of cell), Acceleration 4 week.
Setting [12] is: ARB ingredient (first value of cell), Initial.
Where [13] appears, read: color, agglomeration, etc., Initial.
The mark [14] stands for this setting: SGLT-2 inhibitor ingredient (second value of cell), Acceleration 1 week.
The mark [15] stands for this setting: SGLT-2 inhibitor ingredient (second value of cell), Acceleration 2 week.
[16] abbreviates: SGLT-2 inhibitor ingredient (second value of cell), Acceleration 3 week.
The mark [17] stands for this setting: SGLT-2 inhibitor ingredient (second value of cell), Acceleration 4 week.
The mark [18] stands for this setting: SGLT-2 inhibitor ingredient (second value of cell), Initial.

With `OC[C@H]1O[C@@H](c2ccc(Cl)c(Cc3ccc(O[C@H]4CCOC4)cc3)c2)[C@H](O)[C@@H](O)[C@@H]1O` [Comparative Example 8, Empagliflozin], the “mRNA expression of ACE” value in series [1] (setting [6]) is reported as “decrease below the normal level”.
For `CCCc1nc2c(C)cc(-c3nc4ccccc4n3C)cc2n1Cc1ccc(-c2ccccc2C(=O)O)cc1` [Comparative Example 14, Telmisartan], the “mRNA expression of ACE” value in series [1] (setting [6]) was “decrease below the normal level”.
On to `OC[C@H]1O[C@@H](c2ccc(Cl)c(Cc3ccc(O[C@H]4CCOC4)cc3)c2)[C@H](O)[C@@H](O)[C@@H]1O` [Empagliflozin, (1S)-1,5-anhydro-1-C-[4-chloro-3-[[4-[[(3S)-tetrahydro-3-furanyl]oxy]phenyl]methyl]phenyl]-D-glucitol], for which the “mRNA expression of ACE” value in series [1] (setting [7]) is on record as “did not decrease to a normal level”.
As for `CCCCC(=O)N(Cc1ccc(-c2ccccc2-c2nnn[nH]2)cc1)[C@H](C(=O)O)C(C)C` [Com. Ex. 20, Valsartan], the content in series [2] (setting [8]) was determined as 99.4%; in series [2] (setting [9]) it was 99.2%; in series [2] (setting [10]), 99%; in series [2] (setting [11]) it was 98.7%; in series [2] (setting [12]) it was 99.7%. The flexible substance in series [2] (Acceleration 1 week) is 0.1 or more; in series [2] (Acceleration 2 week), 0.1 or more; in series [2] (Acceleration 3 week), 0.1 or more; in series [2] (Acceleration 4 week), 0.1 or more; in series [2] (Initial), 0.1 or less. In addition, the property entry in series [2] (Acceleration 1 week), in series [2] (Acceleration 2 week), in series [2] (Acceleration 3 week), in series [2] (Acceleration 4 week) and in series [2] (setting [13]) was “suitable” in each case.
In the case of `CCCc1nc2c(C)cc(-c3nc4ccccc4n3C)cc2n1Cc1ccc(-c2ccccc2C(=O)O)cc1` [Com. Ex. 16, Telmisartan], the content is 100.1% in series [2] (setting [8]); 100% in series [2] (setting [9]); 100% in series [2] (setting [10]); 100% in series [2] (setting [11]); 100.1% in series [2] (setting [12]). The flexible substance in series [2] (Acceleration 1 week), in series [2] (Acceleration 2 week), in series [2] (Acceleration 3 week), in series [2] (Acceleration 4 week) and in series [2] (Initial) was 0.1 or less each time. The property result in series [2] (Acceleration 1 week), in series [2] (Acceleration 2 week), in series [2] (Acceleration 3 week), in series [2] (Acceleration 4 week) and in series [2] (setting [13]) was “suitable” in each case.
For the compound `CCOc1ccc(Cc2cc([C@@H]3O[C@H](CO)[C@@H](O)[C@H](O)[C@H]3O)ccc2Cl)cc1` [Dapagliflozin, (1S)-1,5-anhydro-1-C-{4-chloro-3-[(4-ethoxyphenyl)methyl]phenyl}-D-glucitol], in series [3] (90% confidence interval 0.93 to 1.12), the “Cmax of Dapagliflozin (T/R ratio)” value is “approximately 1.02 times”. In addition, the “AUC of Dapagliflozin (T/R ratio)” value in series [3] (90% confidence interval 0.97 to 1.03) was “approximately 1.00 times”. For the same compound, in series [4], the “difference in AUCall between groups in the single administration group and the combined administration group” value worked out at 1.0 times. The “mRNA expression of ACE” value in series [1] (setting [7]) was “did not decrease to a normal level”. Further, in series [5], the GLU entry is reported as “decreased”.
`Cc1ccc([C@@H]2O[C@H](CO)[C@@H](O)[C@H](O)[C@H]2O)cc1Cc1ccc(-c2ccc(F)cc2)s1` [Com. Ex. 21, Canagliflozin]: the flexible substance in series [2] (Acceleration 1 week) was 1.0 or less; in series [2] (Acceleration 2 week), 5.0 or more; in series [2] (Acceleration 3 week), 5.0 or more; in series [2] (Acceleration 4 week) it was 5.0 or more; in series [2] (Initial), 0.1 or less. Moreover, the property entry is “unsuitable” in series [2] (Acceleration 1 week); “unsuitable” in series [2] (Acceleration 2 week); “unsuitable” in series [2] (Acceleration 3 week); “unsuitable” in series [2] (Acceleration 4 week); “suitable” in series [2] (setting [13]). For the same compound, the content in series [2] (setting [14]) was determined as 95.2%; in series [2] (setting [15]) it was 89.2%; in series [2] (setting [16]), 85.2%; in series [2] (setting [17]), 80.1%; in series [2] (setting [18]), 99.5%.
On to `OC[C@H]1O[C@@H](c2ccc(Cl)c(Cc3ccc(O[C@H]4CCOC4)cc3)c2)[C@H](O)[C@@H](O)[C@@H]1O` [Com. Ex. 17, Empagliflozin], for which the flexible substance is listed as 1.0 or less in series [2] (Acceleration 1 week); 1.0 or more in series [2] (Acceleration 2 week); 5.0 or more in series [2] (Acceleration 3 week); 5.0 or more in series [2] (Acceleration 4 week); 0.1 or less in series [2] (Initial). The property result is given as “suitable” in series [2] (Acceleration 1 week); “suitable” in series [2] (Acceleration 2 week); “unsuitable” in series [2] (Acceleration 3 week); “unsuitable” in series [2] (Acceleration 4 week); “suitable” in series [2] (setting [13]). In addition, the content came out at 97.3% in series [2] (setting [14]); 95.1% in series [2] (setting [15]); 85.4% in series [2] (setting [16]); 80.2% in series [2] (setting [17]); 99.9% in series [2] (setting [18]).
Regarding `CCCc1nc(C(C)(C)O)c(C(=O)O)n1Cc1ccc(-c2ccccc2-c2nnn[nH]2)cc1` [olmesartan], the cell survival rate entry in the series on A549 cells and with MDCK cells was “no effect on cell survival rate” in each case.
